Test results as given in patent US9650395B2, “Antibacterial compounds and methods for use” (PTC Therapeutics, Inc., priority 2011, dated 2017).
Values after ≈ are worked out from the molar mass of the structure shown. Where a name gives a salt, the structure may show the parent alone. Read-outs that look alike come from different tables or passages of the source.

Legend:
[1] = tested on: super sensitive Gram-negative Escherichia coli (E. coli) BAS849; assay: Antibacterial activity, microbroth dilution MIC, E. coli BAS849; format: cell-based; conditions: Escherichia coli, read-out: MIC, BAS849
[2] = tested on: control Gram-negative E. coli 25922 strain; assay: Antibacterial activity, microbroth dilution MIC, E. coli 25922; format: cell-based, Escherichia coli; conditions: Escherichia coli; E. coli 25922, microbroth dilution; read-out: MIC, 25922
[3] = tested on: Gram-positive Staphylococcus aureus (S. aureus) 29213; assay: Antibacterial activity, microbroth dilution MIC, S. aureus 29213; format: cell-based; conditions: Staphylococcus aureus; S. aureus 29213, microbroth dilution; read-out: MIC, 29213
[4] = tested on: quinolone resistant E. coli LZ3111; assay: Antibacterial activity, MIC, quinolone resistant E. coli LZ3111; format: cell-based, Escherichia coli; conditions: Escherichia coli, read-out: MIC, LZ3111
From the text: The antibacterial activity from a microbroth dilution method may be presented as the minimum inhibitory concentration (MIC in […]). The MIC value is the lowest concentration of a drug which prevents macroscopically visible bacterial growth under test conditions.
Mutations in these regions are known to confer a high level resistance to the quinolone class of antibiotics.

[5] = E. coli BAS849, microbroth dilution

Compound	MIC [1, 5]	MIC [2]	MIC [3]	MIC [4]	MIC [1]
CCc1cc(C(=O)O)c(=O)[nH]c1-c1ccc(N2C[C@H]3C[C@@H](NC)[C@H]3C2)cc1.Cl [Cpd 210, 5-ethyl-6-{4-[(1S,5R,6R)-6-(methylamino)-3-azabicyclo[3.2.0]hept-3-yl]phenyl}-2-oxo-1,2-dihydropyridine-3-carboxylic acid hydrochloride]	1 to 3.5 µg/mL	12.5 to 150 µg/mL	12.5 to 150 µg/mL	12.5 to 150 µg/mL	–
CCc1cc(C(=O)O)c(=O)[nH]c1-c1ccc(N2C[C@H]3C[C@@H](N)[C@H]3C2)cc1 [Cpd 211, 6-{4-[(1S,5R,6R)-6-amino-3-azabicyclo[3.2.0]hept-3-yl]phenyl}-5-ethyl-2-oxo-1,2-dihydropyridine-3-carboxylic acid]	< 1 µg/mL	3.5 to 12.5 µg/mL (≈ 9.9 to 35.4 µM)	12.5 to 150 µg/mL (≈ 35.4 to 424 µM)	12.5 to 150 µg/mL (≈ 35.4 to 424 µM)	–
CCc1cc(C(=O)O)c(=O)[nH]c1-c1ccc(N2C[C@H]3C[C@H](N)[C@H]3C2)cc1.Cl [Cpd 212, 6-{4-[(1S,5R,6S)-6-amino-3-azabicyclo[3.2.0]hept-3-yl]phenyl}-5-ethyl-2-oxo-1,2-dihydropyridine-3-carboxylic acid hydrochloride]	< 1 µg/mL	3.5 to 12.5 µg/mL	12.5 to 150 µg/mL	12.5 to 150 µg/mL	–
CCc1cc(C(=O)O)c(=O)[nH]c1-c1ccc(N2CC3CCCNC3C2)cc1.Cl (stereo not drawn) [Cpd 213, 5-ethyl-6-[4-(octahydro-6H-pyrrolo[3,4-b]pyridin-6-yl)phenyl]-2-oxo-1,2-dihydropyridine-3-carboxylic acid hydrochloride]	1 to 3.5 µg/mL	12.5 to 150 µg/mL	12.5 to 150 µg/mL	12.5 to 150 µg/mL	–
CCc1cc(C(=O)O)c(=O)[nH]c1-c1ccc(N2CC(N)C3(CC3)C2)cc1.O=C(O)C(F)(F)F (stereo not drawn) [Cpd 214, 6-[4-(7-amino-5-azaspiro[2.4]hept-5-yl)phenyl]-5-ethyl-2-oxo-1,2-dihydropyridine-3-carboxylic acid trifluoroacetate]	–	12.5 to 150 µg/mL	12.5 to 150 µg/mL	12.5 to 150 µg/mL	1 to 3.5 µg/mL
CCc1cc(C(=O)O)c(=O)[nH]c1-c1ccc(N2C[C@H]3C[C@@H](NC)C[C@H]3C2)cc1 [Cpd 215, 5-ethyl-6-{4-[(3aR,5r,6aS)-5-(methylamino)hexahydrocyclopenta[c]pyrrol-2(1H)-yl]phenyl}-2-oxo-1,2-dihydropyridine-3-carboxylic acid trifluoroacetate]	–	3.5 to 12.5 µg/mL	12.5 to 150 µg/mL	12.5 to 150 µg/mL	1 to 3.5 µg/mL
CCc1cc(C(=O)O)c(=O)[nH]c1-c1ccc(N2CCC(C3(N)CCC3)C2)cc1.O=C(O)C(F)(F)F (stereo not drawn) [Cpd 218, 6-{4-[3-(1-aminocyclobutyl)pyrrolidin-1-yl]phenyl}-5-ethyl-2-oxo-1,2-dihydropyridine-3-carboxylic acid trifluoroacetate]	–	3.5 to 12.5 µg/mL	12.5 to 150 µg/mL	12.5 to 150 µg/mL	1 to 3.5 µg/mL
CCc1cc(C(=O)O)c(=O)[nH]c1-c1ccc(N2C[C@@H]3CCC[C@]3(C(=O)O)C2)cc1.O=C(O)C(F)(F)F [Cpd 220, (3aR,6aR)-2-[4-(5-carboxy-3-ethyl-6-oxo-1,6-dihydropyridin-2-yl)phenyl]hexahydrocyclopenta[c]pyrrole-3a(1H)-carboxylic acid trifluoroacetate]	–	12.5 to 150 µg/mL	12.5 to 150 µg/mL	12.5 to 150 µg/mL	3.5 to 12.5 µg/mL
CCc1cc(C(=O)O)c(=O)[nH]c1-c1ccc(N2CCC(N(C)C)C2)cc1F (stereo not drawn) [Cpd 221, 6-{4-[3-(dimethylamino)pyrrolidin-1-yl]-2-fluorophenyl}-5-ethyl-2-oxo-1,2-dihydropyridine-3-carboxylic acid]	1 to 3.5 µg/mL (≈ 2.68 to 9.37 µM)	3.5 to 12.5 µg/mL (≈ 9.37 to 33.5 µM)	12.5 to 150 µg/mL (≈ 33.5 to 402 µM)	12.5 to 150 µg/mL (≈ 33.5 to 402 µM)	–
CCc1cc(C(=O)O)c(=O)[nH]c1-c1ccc(N2CCC(O)CC2)cc1 [Cpd 222, 5-ethyl-6-[4-(4-hydroxypiperidin-1-yl)phenyl]-2-oxo-1,2-dihydropyridine-3-carboxylic acid]	1 to 3.5 µg/mL (≈ 2.92 to 10.2 µM)	12.5 to 150 µg/mL (≈ 36.5 to 438 µM)	12.5 to 150 µg/mL (≈ 36.5 to 438 µM)	12.5 to 150 µg/mL (≈ 36.5 to 438 µM)	–
CCc1cc(C(=O)O)c(=O)[nH]c1-c1ccc(N2CCC(N(C)C)CC2)cc1 [Cpd 223, 6-{4-[4-(dimethylamino)piperidin-1-yl]phenyl}-5-ethyl-2-oxo-1,2-dihydropyridine-3-carboxylic acid]	12.5 to 150 µg/mL (≈ 33.8 to 406 µM)	12.5 to 150 µg/mL (≈ 33.8 to 406 µM)	12.5 to 150 µg/mL (≈ 33.8 to 406 µM)	12.5 to 150 µg/mL (≈ 33.8 to 406 µM)	–
CCc1cc(C(=O)O)c(=O)[nH]c1-c1ccc(N2CCC(OC)CC2)cc1 [Cpd 224, 5-ethyl-6-[4-(4-methoxypiperidin-1-yl)phenyl]-2-oxo-1,2-dihydropyridine-3-carboxylic acid]	< 1 µg/mL	12.5 to 150 µg/mL (≈ 35.1 to 421 µM)	12.5 to 150 µg/mL (≈ 35.1 to 421 µM)	12.5 to 150 µg/mL (≈ 35.1 to 421 µM)	–
